# Results taken from article PMC7215238 (Bioorganic & medicinal chemistry letters, 2020).
# Assays:
# Format in all cases: cell-based
# [1] = system: E.coli ATCC 25922; assay: MIC by broth microdilution, E. coli ATCC 25922; conditions: cation-adjusted Mueller-Hinton broth, CLSI guidelines
# [2] = system: E.coli IHMA 940398; assay: MIC by broth microdilution, E. coli IHMA 940398; conditions: cation-adjusted Mueller-Hinton broth, CLSI guidelines, clinical strain with reduced susceptibility to PMB
# [3] = system: K.pneumoniae ATCC 4352; assay: MIC by broth microdilution, K. pneumoniae ATCC 4352; conditions: cation-adjusted Mueller-Hinton broth, CLSI guidelines
# [4] = system: K.pneumoniae IHMA 652780; assay: MIC by broth microdilution, K. pneumoniae IHMA 652780; conditions: cation-adjusted Mueller-Hinton broth, CLSI guidelines, clinical strain with reduced susceptibility to PMB
# [5] = system: P.aeruginosa ATCC 27853; assay: MIC by broth microdilution, P. aeruginosa ATCC 27853; conditions: cation-adjusted Mueller-Hinton broth, CLSI guidelines
# [6] = system: P.aeruginosa IHMA 517175; assay: MIC by broth microdilution, P. aeruginosa IHMA 517175; conditions: cation-adjusted Mueller-Hinton broth, CLSI guidelines, clinical strain with reduced susceptibility to PMB
# [7] = system: A.baumannii NCTC 13424; assay: MIC by broth microdilution, A. baumannii NCTC 13424; conditions: cation-adjusted Mueller-Hinton broth, CLSI guidelines
# [8] = system: A.baumannii IHMA 863866; assay: MIC by broth microdilution, A. baumannii IHMA 863866; conditions: cation-adjusted Mueller-Hinton broth, CLSI guidelines, clinical strain with reduced susceptibility to PMB
substance,measurement,setting,value
Polymyxin B [Compound 1],MIC E.coli ATCC 25922,[1],0.25 µg/mL
same,MIC E.coli IHMA 940398,[2],16 µg/mL
same,MIC K.pneumoniae ATCC 4352,[3],0.125 µg/mL
same,MIC K.pneumoniae IHMA 652780,[4],4.0 µg/mL
same,MIC P.aeruginosa ATCC 27853,[5],0.5 µg/mL
same,MIC P.aeruginosa IHMA 517175,[6],8.0 µg/mL
same,MIC A.baumannii NCTC 13424,[7],0.25 µg/mL
same,MIC A.baumannii IHMA 863866,[8],32 µg/mL
